Like-named read-outs stand apart in the source and are kept apart here. *1 amine or outer side, *2 acyl side, *3 side chain or, on linkers, in order; H or OH if unused. Where a SMILES comes first, the peptide text is derived from it. Side-chain parts run from the residue outwards. [ ]: non-standard residue; d: D form. The star is where a group is joined. γGlu = O=C(O)[C@H](CCC(=O)[*:2])N[*:1]; Palmitoyl = CCCCCCCCCCCCCCCC(=O)*; Aib = CC(C)(N)C(=O)O

A word on the EC50: it is the midpoint of the concentration-response curve. As a reminder, the half-life is the time needed for the level to fall by half in the phase considered. The term Tmax denotes the time at which the peak concentration occurs. A word on the bioavailability: it is dose-corrected exposure relative to a reference, in per cent.

The target of data set [1] is T1, human glucagon receptor (Glucagon-R) (Homo sapiens, UniProt P47871).
T1 construct: expressed in transfected cells
T1 sequence (P47871 26-477): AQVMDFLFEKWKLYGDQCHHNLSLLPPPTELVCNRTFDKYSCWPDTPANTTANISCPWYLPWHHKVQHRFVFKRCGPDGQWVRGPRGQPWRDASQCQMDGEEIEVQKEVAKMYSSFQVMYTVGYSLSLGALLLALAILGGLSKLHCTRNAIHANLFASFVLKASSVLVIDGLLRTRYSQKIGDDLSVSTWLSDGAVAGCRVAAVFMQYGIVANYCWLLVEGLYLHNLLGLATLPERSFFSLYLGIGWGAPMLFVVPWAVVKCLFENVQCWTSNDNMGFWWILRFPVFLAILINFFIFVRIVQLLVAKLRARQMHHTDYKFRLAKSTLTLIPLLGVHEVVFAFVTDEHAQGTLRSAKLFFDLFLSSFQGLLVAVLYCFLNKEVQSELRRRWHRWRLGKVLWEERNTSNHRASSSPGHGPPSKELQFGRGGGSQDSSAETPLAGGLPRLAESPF
The data set is described as follows: Glucagon receptor efficacy assay (cAMP AlphaScreen, CHO cells). The class given is cell-based. Particulars: Table 1A; CHO cells expressing human Glucagon-R, cAMP; read-out: EC50 hGCGR CHO-K1. The method in brief: (§1)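 Stably transfected CHO clones expressing human GLP-1R or glucagon receptor were treated with increasing peptide concentrations for 15 min at room temperature in KRBH containing 0.1 mM IBMX. After lysis, cAMP was quantified by AlphaScreen; EC50 and efficacy relative to GLP-1 or glucagon reference came from curve fitting.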
(Alpha assays give light when donor and acceptor beads are brought close together.)

The target of data set [2] is T2, human glucagon-like peptide 1 receptor (GLP-1R) (Homo sapiens, UniProt P43220).
T2 construct: expressed in transfected cells
T2 sequence (P43220 24-463): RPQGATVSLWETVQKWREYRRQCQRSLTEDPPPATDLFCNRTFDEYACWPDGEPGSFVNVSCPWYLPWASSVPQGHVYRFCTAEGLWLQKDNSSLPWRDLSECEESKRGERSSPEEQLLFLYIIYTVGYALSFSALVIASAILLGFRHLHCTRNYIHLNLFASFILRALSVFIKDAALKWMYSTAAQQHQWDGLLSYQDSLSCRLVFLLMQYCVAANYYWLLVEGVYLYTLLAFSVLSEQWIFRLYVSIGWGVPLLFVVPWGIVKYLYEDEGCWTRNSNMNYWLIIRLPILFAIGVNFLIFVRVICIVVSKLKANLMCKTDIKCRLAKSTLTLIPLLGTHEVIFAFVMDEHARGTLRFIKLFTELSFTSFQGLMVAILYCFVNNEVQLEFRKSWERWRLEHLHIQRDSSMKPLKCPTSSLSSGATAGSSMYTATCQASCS
The data set can be described thus: GLP-1 receptor efficacy assay (cAMP AlphaScreen, CHO cells). In kind it is cell-based. To be noted: Table 1A. A digest of the protocol:
as §1

In data set [3] the target is T3, endogenous GLP-1 receptors (Mus musculus, UniProt O35659).
T3 construct: Agonistic activity of the test compounds on endogenous GLP-1 receptors; endogenous in cells
T3 sequence (O35659 22-463): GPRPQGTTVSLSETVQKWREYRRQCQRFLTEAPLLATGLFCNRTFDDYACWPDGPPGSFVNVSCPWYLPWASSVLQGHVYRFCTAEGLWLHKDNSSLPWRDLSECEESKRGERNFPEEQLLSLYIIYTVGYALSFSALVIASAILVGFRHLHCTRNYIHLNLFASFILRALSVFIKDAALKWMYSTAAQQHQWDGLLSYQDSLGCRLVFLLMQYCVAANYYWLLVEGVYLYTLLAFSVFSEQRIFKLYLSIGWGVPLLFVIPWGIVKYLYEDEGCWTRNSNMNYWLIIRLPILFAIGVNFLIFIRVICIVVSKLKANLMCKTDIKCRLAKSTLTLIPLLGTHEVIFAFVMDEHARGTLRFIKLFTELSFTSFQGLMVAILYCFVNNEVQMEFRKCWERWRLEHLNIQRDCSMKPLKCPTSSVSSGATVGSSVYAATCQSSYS
The data set is described as follows: Agonistic activity on endogenous GLP-1 receptor (cAMP, murine insulinoma cell line). The class given is cell-based. Particulars: intracellular cAMP, 15 minutes at 26° C.; read-out: EC50 GLP-1R (murine insulinoma cells). A digest of the protocol:
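Murine insulinoma cells were exposed 15 min at 26° C in KRBH with 0.1% DMSO to compound or GLP-1 ([…]), then cAMP was measured by AlphaScreen against a standard curve, in quadruplicate. pEC50 came from curve fits; % CTL was normalised to the maximal GLP-1 cAMP response.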

Data set [4] can be described thus: Pharmacokinetic parameters after subcutaneous and intravenous administration to mice. In kind it is in vivo. To be noted: male, mouse, plasma, 20 nmol/kg, C57Bl/6J mice; for half-life: read-out: Terminal half life (converted). The protocol: Pharmacokinetic parameters of the test compounds were determined after subcutaneous and intravenous administration to C57Bl/6J mice.
8 week old male C57Bl/6J mice were obtained from Taconic (Denmark) weighing approximately 20-25 g at time of arrival at the test facility. The mice were caged in European standard cages type III with light cycle of 12-hour dark and 12-hour light (lights on 06.00). Both diet, Altromin 1324 (Altromin, Germany), and water was administered ad libitum during the whole experimental period. The 8-11 week animals were imported to the laboratory at least 7 days before the start up of the experimental procedure in order to assure proper acclimatization. After sampling the mice were euthanized by cervical dislocation.
The compounds were first dissolved in 0.096% aqueous ammonia to a nominal concentration of 2 mg/ml, and then diluted to the desired dosing strength (4 μM) in sterile PBS containing 25 mM phosphate buffer, pH 7.4. Subcutaneous and intravenous injections corresponding to 20 nmol/kg were given. The GLP-1-glucagon dual agonists were administered for subcutaneous dosing in the neck region and via a lateral tail vein for intravenous dosing.
Blood samples (250 μl) were collected from the periorbital plexus at time points 0.5, 2, 4, 6, 12, 16, 20, 24 h for subcutaneous and 10, 30 min, 3, 6, 12, 18, 24 h for intravenous administration into ice-chilled K3EDTA tubes and centrifuged for 5 minutes at 4° C. within 20 minutes of sampling. Plasma (>100 μl) was separated to ice-chilled Micronic tubes, immediately frozen, and kept at −70° C. until analysed for plasma concentration for the respective GLP-1-glucagon compound using LC-MS/MS. Individual plasma concentration-time profiles were analysed by a non-compartmental approach in WinNonLin v6.3 (Pharsight inc, Mountain View, Calif., USA), and the resulting pharmacokinetic parameters determined.

The nature of data set [5]: Oral glucose tolerance test (OGTT). To be noted: blood glucose AUC 0-120 min, 10 nmol/kg s.c. 4 h before oral glucose 2 g/kg. In kind it is in vivo, C57BL/6J mice. The protocol: Male C57BL/6J mice were fasted for 10 h before they received an oral glucose bolus of 2 g/kg body weight. Peptides were dissolved in saline buffered with 25 mM phosphate and administered at a dose of 10 nmol/kg body weight by subcutaneous injection 4 h before the glucose bolus. Control animals received a vehicle injection only. Group size was 7 animals per group. A pre-dose and a pre-glucose (0 min) blood sample were obtained by tail bleeding and blood glucose was measured with a glucometer. Additional samples of tail blood for measuring blood glucose were obtained 15 min, 30 min, 60 min, 90 min and 120 min after the glucose challenge. […] Calculation of AUC was done by the trapezoidal rule without baseline correction. The data are presented as mean±S.E.M. Statistical comparisons were conducted by one-way ANOVA followed by Tukey's post test. Vehicle alone was used as a control.

In the case of `CCCCCCCCCCCCCCCC(=O)N[C@@H](CCC(=O)NCCCC[C@H](NC(=O)[C@H](CCC(=O)O)NC(=O)[C@H](CC(=O)O)NC(=O)[C@H](CC(C)C)NC(=O)[C@H](Cc1ccc(O)cc1)NC(=O)[C@H](CCCCN)NC(=O)[C@H](CO)NC(=O)[C@H](Cc1ccc(O)cc1)NC(=O)[C@H](CC(=O)O)NC(=O)[C@H](CO)NC(=O)[C@@H](NC(=O)[C@H](Cc1ccccc1)NC(=O)[C@@H](NC(=O)CNC(=O)[C@H](CCC(N)=O)NC(=O)C(C)(C)NC(=O)[C@@H](N)Cc1c[nH]cn1)[C@@H](C)O)[C@@H](C)O)C(=O)N[C@@H](CCCNC(=N)N)C(=O)N[C@@H](C)C(=O)N[C@@H](CCCCN)C(=O)N[C@@H](CC(=O)O)C(=O)N[C@@H](Cc1ccccc1)C(=O)N[C@H](C(=O)N[C@@H](CCC(=O)O)C(=O)N[C@@H](Cc1c[nH]c2ccccc12)C(=O)N[C@@H](CC(C)C)C(=O)N[C@@H](CC(C)C)C(=O)N[C@@H](CO)C(=O)O)[C@@H](C)CC)C(=O)O` [Compound 11, H-H-Aib-QGTFTSDYSKYLDE-K(Hexadecanoyl-isoGlu)-RAKDFIEWLLS-OH] (H-H[Aib]QGTFTSDYSKYLDEK([γGlu-Palmitoyl])RAKDFIEWLLS-OH), in data set [1], the EC50 was found to be 610 pM. The EC50 in data set [2] (CHO cells expressing human GLP-1-R, cAMP, read-out: EC50 hGLP-1R CHO-K1) came out at 640 pM. Further, the “Ratio GLP-1/Glucagon” value in data set [2] (EC50 [GLP-1R]/EC50 [Glucagon-R]) stood at 1.05. Also, the EC50 in data set [3] came to 1010 pM. For the same compound, in data set [4] (IV), the clearance was 0.157 mL/min/kg and the half-life was 3.9 h. Moreover, in data set [4] (SC), the Tmax turned out to be 4 h, the bioavailability was found to be 64% and the half-life is 5 h. Moreover, the MRT in data set [4] (SC, read-out: Mean Residence Time) turned out to be 12.5 h. Moreover, the “AUC (% Ctrl)” value in data set [5] was found to be 61 % Ctrl.

(Values after patent US10253081B2, “Glucagon analogues” (Zealand Pharma A/S, priority 2012, dated 2019).)
